Laboratory results taken from PubChem BioAssay (NCI).
Values joined by “and” are separate entries in the source; they are usually repeats but may differ in a detail not shown here. Equal values may be shown once.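 Five compound concentrations were applied to cells in 96-well plates for 48 hours; endpoints were derived by simple linear interpolation of the resulting dose-response curve. Here, GI50 denotes the concentration required for 50% inhibition of growth. Definition used: TGI = concentration required for complete inhibition of growth.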

Key:
Assay in all cases: inhibition of tumour cell growth, NCI panel, 48 h
SNB-75 CNS = tested on: SNB-75 CNS
DMS 114 small cell lung = tested on: DMS 114 small cell lung
NCI-H226 lung = tested on: NCI-H226 lung
OVCAR-8 ovarian = tested on: OVCAR-8 ovarian
HOP-92 NSCLC = tested on: HOP-92 NSCLC
MALME-3M melanoma = tested on: MALME-3M melanoma
UACC-257 melanoma = tested on: UACC-257 melanoma
U251 CNS = tested on: U251 CNS
SNB-19 CNS = tested on: SNB-19 CNS
LOX IMVI melanoma = tested on: LOX IMVI melanoma

SMILES	GI50 (SNB-75 CNS)	TGI (SNB-75 CNS)	GI50 (DMS 114 small cell lung)	TGI (DMS 114 small cell lung)	GI50 (NCI-H226 lung)	TGI (NCI-H226 lung)	GI50 (OVCAR-8 ovarian)	TGI (OVCAR-8 ovarian)	GI50 (HOP-92 NSCLC)	TGI (HOP-92 NSCLC)	GI50 (MALME-3M melanoma)	TGI (MALME-3M melanoma)	GI50 (UACC-257 melanoma)	TGI (UACC-257 melanoma)	GI50 (U251 CNS)	TGI (U251 CNS)	GI50 (SNB-19 CNS)	TGI (SNB-19 CNS)	GI50 (LOX IMVI melanoma)	TGI (LOX IMVI melanoma)
CCC[CH2][Sn]([CH2]CCC)([O]C(=O)C(N)CSC)[O]C(=O)C(N)CSC (stereo not drawn)	10 µM	31.6 µM	2.72 µM	12.8 µM	20.5 µM	34.9 µM	12.6 µM	38.1 µM	8.05 µM	20.3 µM	7.19 µM	48.7 µM	11.8 µM	26.1 µM	11.3 µM	25.1 µM	12.1 µM	24.6 µM	7.17 µM	26.3 µM
C=C1C(=O)[C@@]23CC1C(O)[C@@H](OC(C)=O)[C@@H]2C1(C)C(OC(C)=O)C[C@@H](OC(C)=O)C(C)(C)[C@@H]1C[C@H]3OC(C)=O (stereo partly drawn)	> 10 µM and 7.25 µg/mL	> 10 µM and 20.5 µg/mL	2.08 µg/mL	4.6 µg/mL	3.11 µg/mL	> 10 µM and 7.24 µg/mL	3.37 µM and 3.94 µg/mL	> 10 µM and 20.1 µg/mL	3.6 µM and 1.95 µg/mL	> 10 µM and 3.84 µg/mL	1.57 µM and 1.72 µg/mL	3.3 µM and 3.14 µg/mL	3.55 µM and 2.25 µg/mL	> 10 µM and 5.06 µg/mL	> 10 µM and 13.9 µg/mL	> 10 µM and 27 µg/mL	> 10 µM and 17.2 µg/mL	> 10 µM and 31.1 µg/mL	1.82 µg/mL	> 10 µM and 3.31 µg/mL
CCCCc1ccc(-n2c3nc(=O)n(C)c(=O)c-3nc3ccccc32)cc1		30.3 µM		18.5 µM		26.6 µM		32.1 µM				19.7 µM		14.5 µM		23.5 µM		21.2 µM		
C1CCN(C2OC3C(COC3N3CCCCC3)OC2OC2CCO[C@@H]2N2CCCCC2)CC1 (stereo partly drawn)		46.2 µM		54.7 µM		54.1 µM		59.2 µM		47.5 µM		83.2 µM		88.1 µM		> 100 µM		> 100 µM		> 100 µM
Cc1cc(C)nc(NS(=O)(=O)c2ccc(Nc3c4ccc(Cl)cc4nc4c(C(=O)Nc5ccc(S(=O)(=O)N=C(N)N)cc5)cccc34)cc2)n1		> 100 µM		> 100 µM				> 100 µM				> 100 µM		> 100 µM		> 100 µM		> 100 µM		> 100 µM
CCN(CC)CCNC(=O)c1nn(C)c(=S)[nH]c1=S		> 100 µM		> 100 µM		> 100 µM		> 100 µM		> 100 µM		> 100 µM		> 100 µM		> 100 µM		> 100 µM		> 100 µM
COc1ccc(C(=O)OC2C=COC(C)C2OC(=O)c2ccc(OC)cc2)cc1 (stereo not drawn)		51.7 µM		37.1 µM		> 100 µM		> 73.7 µM		37.1 µM		> 47.1 µM		> 72.4 µM		97.9 µM		> 100 µM		29.8 µM
CC[O-].CC[O-].O=C1C(c2ccccc2)=C([O-])c2ccccc21.O=C1C(c2ccccc2)=C([O-])c2ccccc21.[Ti+4]	> 100 µM	> 100 µM	> 100 µM	> 100 µM	> 100 µM	> 100 µM	> 100 µM	> 100 µM	> 100 µM	> 100 µM	> 100 µM	> 100 µM	> 100 µM	> 100 µM	> 100 µM	> 100 µM			> 100 µM	> 100 µM
O=C(Nc1ccc(F)cc1)C(=O)C(C1OC(=O)c2ccccc21)[N+](=O)[O-] (stereo not drawn)		> 100 µM		> 100 µM		> 100 µM		> 100 µM		> 100 µM		> 100 µM		> 100 µM		> 100 µM		> 100 µM		> 100 µM
CCCC(C)C[C@@H](C)CC(C)/C=C(\C)c1oc(=O)c(C)c(O)c1C (stereo partly drawn) (tested in a mixture with another compound)		28.3 µM		32.2 µM		30.4 µM		39.7 µM				9.17 µM		29.2 µM		27.6 µM		28 µM		31.6 µM
